Data on two compounds can be found in patent US12390447B2, “Sirtuin 6 protein deacylase (SIRT6) activators” (Wisconsin Alumni Research Foundation, priority 2019, dated 2025).

Assay [1] addresses T1, SIRT6 (Homo sapiens, UniProt Q8N6T7). The experiment in a line: Steady-state kinetic analysis of SIRT6 deacetylation (Michaelis-Menten). Format: biochemical. The following applies: in the presence of 100 μM CL4, 50 μM TTNPB, 50 μM LPA or 50 μM LGly. Here is the method:
FIGS. 1A-F illustrate the identification of novel SIRT6 activators. (1A) Compound libraries BML-2803, BML-2800, and an additional set of 178 molecules were screened at 100 μM for their ability to stimulate SIRT6 (1 μM) deacetylation of H3K9ac peptide (20 μM) in the presence of 0.5 mM NAD^+. SIRT6 activity was measured by HPLC quantification of H3K9ac and deacetylated product (inset) and fold activations relative to DMSO control were determined and compiled. (1B) Fold-activation of SIRT6 (1 μM) determined in the presence of either 0-400 μM CL4, 0-150 μM TTNPB, 0-100 μM Lysophosphatidic acid (LPA), or 0-200 μM linoleoylglycine (LGly). Maximum fold-activation and EC50 determined by sigmoidal curve fit. […] Constants Km, H3K9ac and kcat were determined by fitting data to Michaelis-Menten equation. (1D) Fold-activations of SIRT1 (0.1 μM), SIRT2 (0.2 μM), SIRT3 (1 μM), SIRT5 (2 μM), and SIRT6 (1 μM) determined in the presence of CL4 (100 μM), TTNPB (50 μM), and LPA (50 μM) relative to DMSO control against 20 μM H3K9ac peptide and 0.5 mM NAD^+. […]
FIGS. 2A-D show results characterizing SIRT6 activator CL5D. […] (2B) SIRT6 demyristoylase activity determined in the presence of 0-25 μM H3K9myr peptide, 0.5 mM NAD^+ and 5% DMSO (•), 12.5 μM CL5D (▪), 25 μM CL5D (♦), and 50 μM CL5D (▴). […]

The target in assay [2] is T1, SIRT6. The experiment in a line: Small molecule SIRT6 activator screen (H3K9ac peptide deacetylation, HPLC). Format: biochemical. Conditions: compound 100 μM; SIRT6 1 μM; H3K9ac peptide 20 μM; 0.5 mM NAD+. How it is done:
Mastermix containing SIRT6, buffer, and H3K9ac peptide were distributed to wells using Microflex peristaltic dispenser (Beckman). Plates were spun and preheated to 37° C. before addition of NAD^+ using peristaltic dispenser. After 60 minutes reactions were quenched with 2% TFA final using peristaltic dispenser then sealed and spun again before in-house HPLC separation and quantification of substrate and product peptides. Reaction conditions were 1 μM SIRT6, 0.5 mM NAD^+, […] (4-16), 20 mM potassium phosphate pH 7.5, 10% DMSO, and either 10 or 100 μM compound determined by 10-fold dilution of stock library concentration.
All sirtuin deacylation assays were carried out at 37° C. in 20 mM potassium phosphate pH 7.5 with 0.5 mM NAD^+, 10% DMSO, and 20 μM H3K9ac or H3K9myr peptides, unless otherwise noted in legend, and quenched by the addition of 2% TFA final. Steady-state reactions were constrained to less than 20% substrate turnover to prevent product inhibition. A variety of times were required to monitor SIRT6 deacetylation (2-60 minutes) under this restraint given the ability to strongly activate catalysis. In these cases, specific activities were determined and either reported as is or as fold-activation of specific activity. […] Deacetylation reactions were analyzed using a gradient of 33-100% B (30% acetonitrile with 0.05% TFA) in 8 min at 1.6 mL min^−1. Demyristoylation reactions were analyzed using a gradient of 3 to 100% B (acetonitrile with 0.05% TFA) in 10 min at 1.6 mL min^−1. The product and substrate peaks were quantified and ratio of these allowed for quantification of product formation.

T1 sequence (Q8N6T7 whole entry): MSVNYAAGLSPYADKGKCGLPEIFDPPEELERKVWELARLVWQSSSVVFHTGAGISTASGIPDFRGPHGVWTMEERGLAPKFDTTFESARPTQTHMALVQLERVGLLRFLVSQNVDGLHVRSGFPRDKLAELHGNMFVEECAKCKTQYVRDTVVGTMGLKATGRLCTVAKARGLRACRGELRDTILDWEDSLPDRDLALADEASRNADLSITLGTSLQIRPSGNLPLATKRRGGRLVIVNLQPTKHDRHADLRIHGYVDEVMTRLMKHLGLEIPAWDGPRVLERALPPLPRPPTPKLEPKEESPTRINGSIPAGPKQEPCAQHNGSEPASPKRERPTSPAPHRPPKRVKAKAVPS

For the compound `O=C(O)c1ccc2c(c1)C(=O)N(c1ccc(NC(=O)c3ccc(Cl)cc3Cl)c(Cl)c1)C2=O` [CL-4, 2-(3-chloro-4-(2,4-dichlorobenzamido)phenyl)-1,3-dioxoisoindoline-5-carboxylic acid], at SIRT6 [1], the kcat is on record as 1.5 ± 0.3 s^−1 × 10^−3. Moreover, at SIRT6 [2], the “F.A. (fold-activation of SIRT6 relative to DMSO control)” value was 18 fold.

As to `CCCCC/C=C\C/C=C\CCCCCCCC(=O)NCC(=O)O` [N-Linoleoylglycine, linoleoyl-glycine, reference compound], on SIRT6 [1], the kcat was 2.8 ± 0.1 s^−1 × 10^−3. Besides, the “F.A. (fold-activation of SIRT6 relative to DMSO control)” value on SIRT6 [2] is recorded as 29 fold.
